Usually Ki stands for the equilibrium dissociation constant of an inhibitor or competing ligand from its target. What is called Kd is the free concentration of one partner at which half of the binding sites on the other are occupied at equilibrium, for simple one-to-one binding. In general, IC50 refers to the concentration that inhibits the measured activity by half. The low end stands for inhibition by little substance, the high end for a need for much substance.

“Also recorded” adds a separate entry of the source. Read-outs that look alike come from different tables or passages of the source. Where a SMILES comes first, the peptide text is derived from it. Where no end group is shown, it is not given here.

In data set [1] the target is T1, α-thrombin (Homo sapiens, UniProt P00734).
T1 construct: purchased Sigma; Haematologic Technologies; or prepared in house from prothrombin (Enzyme Research Laboratories) with Oxyuranus scutellatus venom
The data set can be described thus: Inhibition of thrombin-mediated hydrolysis of S2238. The class given is biochemical. Here is the method:
[…] Reactions were started by addition of thrombin (0.5 nM) and absorbance was monitored for 10 minutes at 405 nm in a microplate reader. The data were fit to competitive or non-competitive models of inhibition using GraphPad Prism 5. In both cases, nonlinear regression was used to fit to the hyperbolic equation: v=Vmaxapp [S]/(Kmapp+[S]) In the case of competitive inhibition Vmaxapp = Vmax and in the case of noncompetitive inhibition Kmapp = Km.
In the case of competitive inhibition the inhibition constant (Ki) was obtained from fitting of: Kmapp = Km(1+[I]/Ki) .
For noncompetitive inhibition Ki was determined by fitting of: Vmaxapp = Vmax/(1+[I]/Ki)
The experiments were repeated three times.

For data set [2], the target named is T2, thrombin (Homo sapiens, UniProt P00734). The settings on record: 2 h, 37°C, TBS pH 7.4, MALDI MS; for cleavage by thrombin (peptide remaining / digestion): 25 μM peptide, 1 μM thrombin (25:1). The protocol:
Reactions were stopped by freezing at –20°C until analysis. Samples (2 μl) were desalted in C-8 micro-columns (Ziptip-Milipore), washing 3 times with 0.1% TFA and eluting with 60% acetonitrile in water. Washes were diluted with 4 μl 50% acetonitrile and spotted (0.5–1 μl) on MALDI plates followed by addition of matrix solution. After drying, they were injected into the MS instrument and analyzed in reflectron (peptide plus thrombin) or linear (peptide alone) mode.

Data set [3] has as its system thrombin (α-thrombin). As to the kind of experiment: thrombin at 1 μM in 1X TBS (10 X dilution of 10 X TBS pH 7.4). Conditions: 37°C, up to 2 hours.
Data set [4] deals with T3, thrombin (α-thrombin) (Homo sapiens, UniProt P00734).
T3 construct: purchased Sigma; Haematologic Technologies; or prepared in house from prothrombin (Enzyme Research Laboratories) with Oxyuranus scutellatus venom
As to the kind of experiment: Screening for inhibition of serine proteases (fluorogenic substrate hydrolysis). The class given is biochemical. The settings on record: 1 μM peptide, pre-incubated 30°C 10 min, mean of three independent experiments in triplicate.
Method: Linear fits of fluorescence increases as a function of time were verified with the Magellan—Data Analysis Software (Tecan group Ltd), and the slope in arbitrary fluorescence units per second (r^2 > 0.95) was used to calculate hydrolysis rate. Each experiment was performed in triplicate and the mean and standard error of three independent experiments were calculated. The substrate hydrolysis rate in the absence of the peptide was considered as 100% and compared with the remaining enzymatic activity in the presence of the peptide.

Data set [5] deals with T1, α-thrombin. The data set can be described thus: Surface plasmon resonance, thrombin binding to immobilized peptide. The settings on record: 150 mM NaCl. Here is the method: Surface plasmon resonance (SPR) was used to measure interaction between immobilized peptides and thrombin using a Biacore T100 instrument. Approximately 500 resonance units of hyalomin-1 biotinylated at Lys1 or its N-terminal cleavage product (01–41) were bound to a neutravidin surface that had been immobilized on C5 chips using the amine coupling procedure. Kinetic measurements were carried out by injecting different concentrations of thrombin in 10 mM HEPES pH 7.4, 150 mM NaCl, 0.05%Tween-20. The chip surface was regenerated using injections of 10 mM glycine pH 2.5. Data were analyzed by global fitting of a 1:1 single state model using the Biacore T100 evaluation software. Binding of γ-thrombin with the same surface was also investigated under similar conditions.
A general note: SPR reads the build-up and loss of mass on a sensor chip optically.

For data set [6], the system named is BALB/c mice. Conditions: 2.5 mg/kg intravenous, tail transection after 15 min, hemoglobin by absorbance at 540.
Method: Briefly, BALB/c mice were anesthetized (xylazine and ketamine) and the common carotid artery was isolated for measuring blood flow continuously using a 0.5-V Doppler flow probe coupled to a TS420 flow meter (Thransonic Systems, Ithaca, NY) [21]. Before induction of thrombosis the tail vein was injected with 50 μl of hyalomin-1 (1 and 2.5 mg/kg) or vehicle (PBS). Thrombi were formed by placing a piece of filter paper (1 x 2 mm) saturated with 7.5% FeCl3 on the adventitial surface or the artery for 3 minutes. After washing with normal saline, blood flow was continuously monitored for 60 minutes or until the blood flow dropped to zero for at least 10 seconds. Tail bleeding was performed on anesthetized mice injected intravenously with peptide (2.5 mg/kg) or vehicle alone (PBS) in 100 μl. After 15 minutes, the distal 2 mm segment was removed and the tail was immersed in 40 ml distilled 37°C warmed water. Absorbance at 540 was measured to estimate hemoglobin content.
For data set [7], the target named is T2, thrombin. As to the kind of experiment: biochemical.
Method: Inhibition of thrombin-mediated activation of FXI in the presence of long-chain (P700) polyphosphate (polyP) was done in according to Choi et al. [17] by adding 2 μM of polyP to buffer (20 mM Tris HCl, pH 7.4, 150 mM NaCl and 0.1% BSA) followed by different concentrations of peptide (23.4 nM to 600 nM). α-Thrombin (5 nM) and 60 nM of FXI were then added and samples were incubated at 37°C for 35 minutes. Reactions were stopped with 50 nM of the thrombin inhibitor anophelin [18, 19] and polybrene to dissociate complexes with polyP. S2236 (Chromogenix Inc.) was added to a concentration of 250 μM and product formed was read as absorbance at 405 nm for 5–10 minutes in a microplate reader. Results were expressed as the percentage of the maximum activity (mAU/min) in the absence of peptide. Experiments were performed in duplicate.
Data set [8] deals with thrombin. The settings on record: cited from earlier work.
The test system of data set [9] is factor Xa. Conditions: cited from earlier work.
Where [10] appears, read: 150 mM NaCl, 0.5 nM thrombin, 37°C, pH 7.4, three experiments, read-out: inhibition constant (Ki), competitive model.

With `CC[C@H](C)[C@H](NC(=O)[C@H](CCCNC(=N)N)NC(=O)[C@H](CCC(=O)O)NC(=O)[C@H](CO)NC(=O)[C@H](CC(=O)O)NC(=O)[C@H](CCCNC(=N)N)NC(=O)CNC(=O)[C@H](CO)NC(=O)CNC(=O)[C@@H]1CCCN1C(=O)[C@@H](NC(=O)[C@@H]1CCCN1C(=O)[C@H](CC(C)C)NC(=O)[C@H](CCCNC(=N)N)NC(=O)[C@@H]1CCCN1C(=O)[C@H](CCCCN)NC(=O)[C@H](C)NC(=O)[C@@H]1CCCN1C(=O)[C@@H](N)CCC(=O)O)C(C)C)C(=O)N1CCC[C@H]1C(=O)N[C@H](C(=O)N1CCC[C@H]1C(=O)N[C@H](C(=O)N[C@@H](CC(=O)O)C(=O)O)C(C)C)C(C)C` [36–59] (H-EPAKPRLPVPGSGRDSERIPVPVD-OH), the inhibitory constant (Ki) in [1] (setting [10]) came out at 0.1 ± 0.002 µM; in data set [1] (salt concentration 50 mM, read-out: Ki, competitive model), 0.18 ± 0.03 µM. Moreover, in data set [2] (25 μM peptide without thrombin), the “cleavage in thrombin-free control” value is recorded as “no cleavage”. In addition, the “cleavage by thrombin (peptide remaining / digestion)” value in data set [2] is listed as “complete digestion”.
In the case of `CC[C@H](C)[C@H](NC(=O)[C@H](CCCNC(=N)N)NC(=O)[C@H](CCC(=O)O)NC(=O)[C@H](CO)NC(=O)[C@H](CC(=O)O)NC(=O)[C@H](CCCNC(=N)N)NC(=O)CNC(=O)[C@H](CO)NC(=O)CNC(=O)[C@@H]1CCCN1C(=O)[C@@H](NC(=O)[C@@H]1CCCN1C(=O)[C@@H](N)CC(C)C)C(C)C)C(=O)N1CCC[C@H]1C(=O)N[C@H](C(=O)N1CCC[C@H]1C(=O)N[C@H](C(=O)N[C@@H](CC(=O)O)C(=O)O)C(C)C)C(C)C` [42–59] (H-LPVPGSGRDSERIPVPVD-OH), the inhibition constant (Ki) was determined as 1.7 ± 0.1 µM in data set [1] (ionic strength 150 mM, read-out: Ki, non-competitive model) and 1.8 ± 0.1 µM in data set [1] (salt concentration 50 mM, read-out: Ki, non-competitive model).
Consider “DESDYDTYPDDNNDDSGERNGGSEPAKPRLPV [hyalomin (13–44) sulfated]”, for which the cleaved bond entry in data set [3] is recorded as “Arg41-Leu42”.
On the same count and under the same terms, to “DESDYDTYPDDNNDDSGERNGGSEPAKPRLPV [hyalomin-1 (13–44)]” belongs “Arg41-Leu42, 2 hr”.
Still for that read-out and setting: to EPAKPRLPVPGSGRDSERIPVPVD belongs “Arg41-Leu42, two hours”; to “KPNLQSRSDDGVDESDYDTYPDDNNDDSGERNGGSEPAKPRLPVPGSGRDSERIPVPVD”, “Arg41-Leu42, two hours”.
As for “KPNLQSRSDDGVDESDYDTYPDDNNDDSGERNGGSEPAKPRLPVPGSGRDSERIPVPVD [hyalomin-1]”, the “loss of thrombin control activity in the presence of the peptide” value in data set [4] is given as 72%. Further, the Ki in data set [1] (50 mM salt, 0.5 nM thrombin, 37°C, read-out: inhibition constant (Ki), competitive model) is 0.0004 ± 0.0001 µM; in data set [1] (setting [10]), 0.0119 ± 0.0018 µM. For the same compound, the “potency of the inhibitor over incubation time with thrombin” value in data set [1] (800:1 peptide to enzyme (400 nM peptide, 0.5 nM thrombin), 37°C, six hour incubation, 50 μM S2238) is “diminished in a time-dependent manner”. Also, the Kd in data set [5] (SPR, immobilized biotinylated peptide, read-out: calculated dissociation equilibrium constant (KD)) was 0.019 µM. For the same compound, the kon in data set [5] (peptide biotinylated at N-terminal lysine on neutravidin surface, pH 7.4, 1:1 model, read-out: association rate constant (ka)) was found to be 1e+06 M⁻¹ s⁻¹. In [5] (peptide biotinylated at N-terminal lysine on neutravidin surface, pH 7.4, 1:1 model, read-out: dissociation rate constant (kd)), the koff was found to be 0.02 s⁻¹. Further, in [2], the “cleavage by thrombin (peptide remaining / digestion)” value is listed as “No full-length peptide”. The tail bleeding result in [6] is given as “significant bleeding”. In addition, the IC50 in data set [7] was ~0.025 µM.
In the case of “YPERDSAKDGNQEKERALLVKVQERYQGNQGDYDEYDQDETTPPPDPTAQTARPRLRQNQD”, the figures for the cleaved bond entry in data set [8] and in data set [9] were “cleaved upstream of this site at Lys21” and “cleaved by factor Xa at Arg16; also recorded: cleaved by factor Xa at Arg25”, respectively.
On to “YPERDSAKEGNQEQERALHVKVQKRTDGDADYDEYEEDGTTPTPDPTAPTAKPRLRGNKP”, for which the cleaved bond entry is “Arg54-Leu55; also recorded: cleaved upstream of this site at Lys21” in [8] and “cleaved by factor Xa at Arg25; also recorded: cleaved by factor Xa at Arg54; also recorded: cleaved by factor Xa at Arg16” in [9].

Source of the values: PMC4526366 (PLoS ONE, 2015).
